Results as given in patent US9549912B2, “Methods for treating atrial fibrillation” (Armetheon, Inc., priority 2009, dated 2017).
Several values for one entry are separate records, joined by “and”; a condition that tells them apart may be missing. Identical values can stand only once.

Assays:
[1] = Safety and tolerability (Example 2); format: in vivo, human
Description: Safety: treatment-emergent adverse event (TEAE) type, severity, and incidence; clinical laboratory assessments, including thyroid function and testicular function (males); coagulation tests; vital signs; physical examinations; ECGs; eye examinations; chest X-rays; and pulmonary function tests.
Statistical methods for safety: Adverse events (AEs) were summarized by system organ class and preferred term. Laboratory parameters and vital signs were summarized by descriptive statistics and shift tables were also created for laboratory parameters. The percent of patients with physical examination findings that changed over the study, with ECG abnormalities by visit, and with corneal deposits were summarized. Chest X-rays and pulmonary function test results were provided in listings.

[2] = Metabolism and elimination features of budiodarone
[3] = system: subjects with paroxysmal atrial fibrillation who had implanted pacemakers; experiment: Proof of concept study of ATI-2042 in PAF patients with pacemakers: AF burden and AF episodes (Example 1); format: in vivo, human
Description: Epub 2009 Jan. 26). This study was a proof of concept design seeking preliminary information on the pharmacodynamic effects, safety, and tolerability of the investigational drug ATI-2042 at a variety of doses, in patients with PAF. Patients with advanced DDDRP pacemakers were selected because of the pacemaker's sophisticated diagnostics and the ability to record continuously and log asymptomatic as well as symptomatic episodes. Only post-menopausal or surgically sterile females with a significant PAF burden and pacemakers were included in this study. The pacemakers had to have been in situ for at least 1 month prior to the study and have appropriate arrhythmia diagnostics. In this study, Vitatron pacemakers, models Selection 9000 or T70 pacemakers, were used. […] Although this finding was explored further, it was prudent to commence clinical testing in a population not at risk for this effect. […] The patients underwent screening assessments to assess suitability for the study and to obtain a baseline medical history and examination. The value of this cohort was that the pacemaker was not inserted for bradycardia but for the treatment of AF using various prevention pacing and rate control techniques. The inclusion criteria were as follows: age 18-85 years; […] The initial ATI-2042 dosage for all subjects was 200 mg orally bid, and it was then increased by 200 mg bid for each subsequent study period. Patients received 200 mg bid of ATI-2042 during period 2, 400 mg bid during period 3, 600 mg bid during period 4 and 800 mg bid during period 5, and no drug was administered during baseline and washout periods. “Selection 9000” and “T70” pacemakers (Vitatron, […], The Netherlands) are dual-chamber pacemakers with sophisticated and similar algorithms for AF detection and prevention. Atrial fibrillation detection is based on atrial rate; atrial tachyarrhythmias are detected when the median atrial cycle length is less than that programmed for AT or AF detection. In all patients, atrial fibrillation was detected if the atrial rate was >200 bpm for six consecutive beats, and its end logged if the atrial rate dropped below 200 bpm for 10 beats. […] Pacemaker anti-arrhythmic algorithms were turned off prior to entry into the baseline period and remained turned off until after washout. […] The primary outcome measure, AFB, was defined as the duration of time the subject's cardiac rhythm was AF divided by the total time recorded for that study period, expressed as percent. The total duration of time that the rhythm was AF is a function of the number of PAF episodes and the duration of each episode. Therefore, a reduction in AFB can occur through reduction in either or both of these variables. Atrial fibrillation burden was compared with baseline during the treatment periods. Secondary outcome measures were the number of AF episodes, the safety of ATI-2042, and the incidence and severity of adverse events (AEs). […] Atrial fibrillation burden is given as the percentage of total storage duration. The sample size for this study was selected empirically. All patients who received any amount of study medication were included in the efficacy and safety analysis. Efficacy variables for the study group are described as mean and standard deviation for each study period. Due to the small number of subjects, comparisons of periods 2-6 with baseline were made using estimates from a mixed-effects regression model.

[4] = Safety, ECG and thyroid function (Example 1); format: in vivo, human
Procedure: Patients were then monitored for at least 3 h continuously post-dose; this included telemetry, vital signs, and oxygen saturations. Electrocardiograms were taken, and the pacemaker data were downloaded prior to drug administration on day 8 and day 14 of each study period.
Criteria for drug discontinuation included a fall in systolic blood pressure (BP) to <90 mmHg systolic, an increase in BP>200 mmHg, intolerable side-effects, a change in rhythm that in the opinion of the investigator constituted a risk to safety, or a QRS increase >50%. Where possible, ECGs of intrinsic rhythm rather than ventricular-paced rhythm were obtained, as paced complexes can be difficult to interpret for QT prolongation. An increase in QT interval >470 ms for intrinsic and >550 ms for paced beats or an increase of 30% was considered significant.
Electrocardiogram parameters (ventricular HR, PR, QRS, QT, QTc interval) were summarized by baseline, dosing period, and washout using descriptive statistics. Changes from baseline in ECG values at day 8 of dosing and day 14 of washout were also summarized. Baseline values of ECG parameters are defined as the mean of three values recorded prior to the first dose of ATI-2042.

[5] = Electrophysiological activity in animals: atrial refractoriness, metabolite activity; format: in vivo; conditions: animals

## (S)-sec-butyl 2-(3-(4-(2-(diethylamino)ethoxy)-3,5-diiodobenzoyl)benzofuran-2-yl)acetate [ATI-2042]
[1]; 200, 400, 600 mg BID, up to 12 weeks
  tolerability: well tolerated
[1]; BUN unchanged
  creatinine: reversible elevation
[1]; appeared dose related
  ALT: mild, reversible increase
[1]; end of treatment period
  corneal deposits (slit-lamp examination): No patient treated with ATI-2042 developed corneal deposits
[1]; hematuria and high INR
  SAEs possibly related to drug: Only one SAE was possibly related
[1]; in vivo
  amiodarone-like end-organ toxicity (pulmonary fibrosis, corneal deposits, neuropathy, photosensitivity): No evidence of amiodarone-like end-organ toxicity was seen
  thyroid function changes: mild and reversible
[1]; patients on concomitant warfarin
  most frequent TEAEs: changes in INR values
[2]
  metabolism: primarily metabolized by esterases
  pharmacokinetic features: short half-life, rapid onset and offset, small volume of distribution, and cytochrome P450-independent elimination
[3]; 200 mg bid (p2), baseline 20.3+14.6%
  mean AFB (SD): 5.2+4.2%
[3]; 400 mg bid (p3)
  mean AFB (SD): 5.2+5.2%
[3]; 600 mg bid (p4)
  mean AFB (SD): 2.8+3.4%
[3]; 800 mg bid (p5)
  mean AFB (SD): 1.5 ± 0.5%
[3]; all doses
  effect on AFB in refractory PAF patients: significantly effective in reducing AFB at all doses
[3]; all doses (200-800 mg bid)
  decrease in AFB: at least 70%
[3]; on drug, remained elevated in washout
  number of AF episodes: increased initially
[3]; p2, 200 mg bid
  relative reduction (RR) in AFB from baseline: 71.2 ± 31.3%
[3]; p2, 200 mg bid, baseline 4.8+5.2
  mean episode duration (SD): 1.7+2.5 h
[3]; p3, 400 mg bid
  mean episode duration (SD): 0.6+0.7 h
  relative reduction (RR) in AFB from baseline: 71.7 ± 20.6%
[3]; p4, 600 mg bid
  mean episode duration (SD): 0.1+0.2 h
  relative reduction (RR) in AFB from baseline: 79.9 ± 26.4%
[3]; p5, 800 mg bid
  mean episode duration (SD): 0.5+0.7 h
  relative reduction (RR) in AFB from baseline: 86.8 ± 9.8%
[3]; washout
  mean episode duration (SD): 2.4+3.0 h
[3]; washout (p6), no drug
  mean AFB (SD): 11.7+14.0%
[4]; 200 mg bid
  PR interval reduction from baseline: 16.6+23.9%
[4]; 400 mg bid
  PR interval reduction from baseline: 11.4+22.6%
[4]; 400 mg bid, patient with AV node ablation, permanently paced
  change in QTc from baseline, one patient: 30 to 60 ms
[4]; 400 mg bid, same patient
  change in paced QTc from baseline, one patient: 15%
[4]; 600 mg bid
  PR interval reduction from baseline: 27.0+32.1%
[4]; 800 mg bid
  PR interval reduction from baseline: 35.1 ± 30.9%
[4]; 200-800 mg bid
  tolerability: generally well tolerated
[4]; all patients, paced or not
  change from baseline QT or QTc with dosing: No patient exhibited >30% change
[4]; between baseline and dosing or washout
  changes in HR, QRS, QT, or QTc: no significant changes
[4]; in vivo
  proarrhythmia, clinical hypothyroidism, hyperthyroidism: no cases of proarrhythmia, clinical hypothyroidism, or hyperthyroidism
  serious AEs: no serious AEs related to study drug
[4]; three patients, from 2.53, 3.51 and 0.68, normal range 0.27-4.2
  thyroid-stimulating hormone level reached after increase, individual patients: 4.82 mU/L and 9.49 mU/L and 16.12 mU/L
[4]; washout
  PR interval reduction from baseline: 30.7 ± 24.3%
[5]
  left and right atrial refractoriness: increased left and right atrial refractoriness comparable with amiodarone
